From patent publication US20160297833A1, “THIENOPYRIMIDINES AS MKNK1 AND MKNK2 INHIBITORS” (BAYER PHARMA AKTIENGESELLSCHAFT, priority 2013, published 2016)
pIC50: −log10 of the molar value.

These compounds were tested against T1, human full-length MKNK1 (Homo sapiens, UniProt Q9BUB5, T385D) (assay: MKNK1 kinase high ATP assay (TR-FRET)). Conditions: Table 1; MKNK1 kinase high ATP assay, 2 mM ATP; read-out: MKNK1 IC50.
T1 construct: GST (N); purchased Carna Biosciences 02-145; host or cells: insect cells (baculovirus expression system)
Format: biochemical
Procedure: MKNK1 Kinase High ATP Assay
MKNK1-inhibitory activity at high ATP of compounds of the present invention after their preincubation with MKNK1 was quantified employing the TR-FRET-based MKNK1 high ATP assay as described in the following paragraphs.
As substrate for the kinase reaction the biotinylated peptide biotin-Ahx-[…] (C-terminus in amide form) was used, which can be purchased e.g. from the company Biosyntan (Berlin-Buch, Germany).
For the assay 50 nL of a 100 fold concentrated solution of the test compound in DMSO was pipetted into a black low volume 384 well microtiter plate (Greiner Bio-One, Frickenhausen, Germany), 2 μL of a solution of MKNK1 in aqueous assay buffer [50 mM HEPES pH 7.5, 5 mM MgCl2, 1.0 mM dithiothreitol, 0.005% (v/v) Nonidet-P40 (Sigma)] was added and the mixture was incubated for 15 min at 22° C. to allow pre-binding of the test compounds to the enzyme before the start of the kinase reaction. Then the kinase reaction was started by the addition of 3 μL of a solution of adenosine-tri-phosphate (ATP, 3.3 mM=>final conc. in the 5 μL assay volume is 2 mM) and substrate (0.1 μM=>final conc. in the 5 μL assay volume is 0.06 μM) in assay buffer and the resulting mixture was incubated for a reaction time of 30 min at 22° C. The concentration of MKNK1 was adjusted depending of the activity of the enzyme lot and was chosen appropriate to have the assay in the linear range, typical concentrations were in the range of 0.003 μg/mL. The reaction was stopped by the addition of 5 μL of a solution of TR-FRET detection reagents (5 nM streptavidine-XL665 [Cisbio Bioassays, Codolet, France] and 1 nM anti-ribosomal protein S6 (pSer236)-antibody from Invitrogen [#44921G] and 1 nM LANCE EU-W1024 labeled ProteinG [Perkin-Elmer, product no. AD0071]) in an aqueous EDTA-solution (100 mM EDTA, 0.1% (w/v) bovine serum albumin in 50 mM HEPES pH 7.5).
The resulting mixture was incubated for 1 h at 22° C. to allow the formation of complex between the phosphorylated biotinylated peptide and the detection reagents. Subsequently the amount of phosphorylated substrate was evaluated by measurement of the resonance energy transfer from the Eu-chelate to the streptavidine-XL. Therefore, the fluorescence emissions at 620 nm and 665 nm after excitation at 350 nm were measured in a TR-FRET reader, e.g. a Rubystar (BMG Labtechnologies, Offenburg, Germany) or a Viewlux (Perkin-Elmer). The ratio of the emissions at 665 nm and at 622 nm was taken as the measure for the amount of phosphorylated substrate.

T1 sequence (Q9BUB5 1-424 isoform Q9BUB5-2 T344D): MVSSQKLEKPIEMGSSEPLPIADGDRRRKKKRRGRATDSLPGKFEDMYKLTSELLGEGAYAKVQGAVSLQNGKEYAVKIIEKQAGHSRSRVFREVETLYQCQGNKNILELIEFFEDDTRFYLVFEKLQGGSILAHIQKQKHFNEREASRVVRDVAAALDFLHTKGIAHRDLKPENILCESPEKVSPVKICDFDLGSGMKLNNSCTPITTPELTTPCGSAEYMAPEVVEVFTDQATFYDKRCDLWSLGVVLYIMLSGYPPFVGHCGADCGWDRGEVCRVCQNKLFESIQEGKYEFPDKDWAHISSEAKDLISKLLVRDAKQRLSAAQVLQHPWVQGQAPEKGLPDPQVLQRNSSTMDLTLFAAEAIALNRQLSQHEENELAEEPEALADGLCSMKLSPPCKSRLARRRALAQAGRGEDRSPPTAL

| Compound | pIC50 |
| --- | --- |
| COc1cc2[nH]ncc2cc1Nc1ncnc2sc3c(c12)CC[C@H](C(=O)N(CCO)CCCN(C)C)C3 [Example 58, (7S)—N-[3-(Dimethylamino)propyl]-N-(2-hydroxyethyl)-4-[(6-methoxy-1H-indazol-5-yl)amino]-5,6,7,8-tetrahydro[1]benzothieno[2,3-d]pyrimidine-7-carboxamide] | 9.52 |
| CCOc1cc2[nH]ncc2cc1Nc1ncnc2sc3c(c12)CC[C@H](C(=O)N(C)CCO)C3 [Example 73, (7S)-4-[(6-Ethoxy-1H-indazol-5-yl)amino]-N-(2-hydroxyethyl)-N-methyl-5,6,7,8-tetrahydro[1]benzothieno[2,3-d]pyrimidine-7-carboxamide] | 9.52 |
| CC1(O)CN(C(=O)[C@H]2CCc3c(sc4ncnc(Nc5ccc6[nH]ncc6c5)c34)C2)C1 [Example 17, (3-Hydroxy-3-methylazetidin-1-yl)[(7S)-4-(1H-indazol-5-ylamino)-5,6,7,8-tetrahydro[1]benzothieno[2,3-d]pyrimidin-7-yl]methanone] | 8.03 |
| COc1cc2[nH]ncc2cc1Nc1ncnc2sc3c(c12)CC[C@H](C(=O)N1CCOCC1)C3 [Example 28, {(7S)-4-[(6-Methoxy-1H-indazol-5-yl)amino]-5,6,7,8-tetrahydro[1]benzothieno[2,3-d]pyrimidin-7-yl}(morpholin-4-yl)methanone] | 9.52 |
| COc1cc2[nH]ncc2cc1Nc1ncnc2sc3c(c12)CC[C@H](C(=O)N(C)CC(C)(C)O)C3 [Example 124, (7S)—N-(2-Hydroxy-2-methylpropyl)-4-[(6-methoxy-1H-indazol-5-yl)amino]-N-methyl-5,6,7,8-tetrahydro[1]benzothieno[2,3-d]pyrimidine-7-carboxamide] | 9.52 |
| COc1cc2[nH]ncc2cc1Nc1ncnc2sc3c(c12)CC[C@H](C(=O)N1CC(F)(F)C1)C3 [Example 164, (3,3-difluoroazetidin-1-yl){(7S)-4-[(6-methoxy-1H-indazol-5-yl)amino]-5,6,7,8-tetrahydro[1]benzothieno[2,3-d]pyrimidin-7-yl}methanone] | 9.15 |
| C[C@@H]1COCCN1C(=O)[C@H]1CCc2c(sc3ncnc(Nc4cc5cn[nH]c5cc4OCCN(C)C)c23)C1 [Example 114, [(7S)-4-({6-[2-(Dimethylamino)ethoxy]-1H-indazol-5-yl}amino)-5,6,7,8-tetrahydro[1]benzothieno[2,3-d]pyrimidin-7-yl][(3R)-3-methylmorpholin-4-yl]methanone] | 7.47 |
| COc1cc2[nH]ncc2cc1Nc1ncnc2sc3c(c12)CC[C@@H](C(=O)N(C)C(C)C)C3 [Example 27, (7R)-4-[(6-Methoxy-1H-indazol-5-yl)amino]-N-methyl-N-(propan-2-yl)-5,6,7,8-tetrahydro[1]benzothieno[2,3-d]pyrimidine-7-carboxamide] | 7.41 |
| CN(C)CCOc1cc2[nH]ncc2cc1Nc1ncnc2sc3c(c12)CC[C@H](C(=O)N(C)C)C3 [Example 109, (7S)-4-({6-[2-(Dimethylamino)ethoxy]-1H-indazol-5-yl}amino)-N,N-dimethyl-5,6,7,8-tetrahydro[1]benzothieno[2,3-d]pyrimidine-7-carboxamide] | 7.78 |
| COc1cc2[nH]ncc2cc1Nc1ncnc2sc3c(c12)CC[C@@H](C(=O)N1CCOCC1)C3 [Example 29, {(7R)-4-[(6-Methoxy-1H-indazol-5-yl)amino]-5,6,7,8-tetrahydro[1]benzothieno[2,3-d]pyrimidin-7-yl}(morpholin-4-yl)methanone] | 8.06 |

The remaining lines, values ahead:

| pIC50 | Compound |
| --- | --- |
| 8.89 | CN(C)C(=O)[C@H]1CCc2c(sc3ncnc(Nc4cc5cn[nH]c5cc4OCCNC(=O)CC(C)(C)C)c23)C1 [Example 272, (7S)-4-[(6-{2-[(3,3-Dimethylbutanoyl)amino]ethoxy}-1H-indazol-5-yl)amino]-N,N-dimethyl-5,6,7,8-tetrahydro[1]benzothieno[2,3-d]pyrimidine-7-carboxamide] |
| 9.52 | COc1cc2[nH]ncc2cc1Nc1ncnc2sc3c(c12)CC[C@H](C(=O)N1CCCCO1)C3 [Example 212, {(7S)-4-[(6-Methoxy-1H-indazol-5-yl)amino]-5,6,7,8-tetrahydro[1]benzothieno[2,3-d]pyrimidin-7-yl}(1,2-oxazinan-2-yl)methanone] |
| 9.70 | CC(C)OC(=O)NCCOc1cc2[nH]ncc2cc1Nc1ncnc2sc3c(c12)CC[C@H](C(=O)N(C)C)C3 [Example 260, Propan-2-yl {2-[(5-{[(7S)-7-(dimethylcarbamoyl)-5,6,7,8-tetrahydro[1]benzothieno[2,3-d]pyrimidin-4-yl]amino}-1H-indazol-6-yl)oxy]ethyl}carbamate] |
| 9.40 | CN(C)C(=O)[C@H]1CCc2c(sc3ncnc(Nc4cc5cn[nH]c5cc4OCCCNC(=O)OC(C)(C)C)c23)C1 [Example 180, tert-Butyl {3-[(5-{[(7S)-7-(dimethylcarbamoyl)-5,6,7,8-tetrahydro[1]benzothieno[2,3-d]pyrimidin-4-yl]amino}-1H-indazol-6-yl)oxy]propyl}carbamate] |
| 8.21 | CN(C)C(=O)[C@H]1CCc2c(sc3ncnc(Nc4cc5cn[nH]c5cc4F)c23)C1 [Example 228, (7S)-4-[(6-Fluoro-1H-indazol-5-yl)amino]-N,N-dimethyl-5,6,7,8-tetrahydro[1]benzothieno[2,3-d]pyrimidine-7-carboxamide] |
| 10.00 | CCOc1cc2[nH]ncc2cc1Nc1ncnc2sc3c(c12)CC[C@H](C(=O)N1CC[C@H](N(C)C)C1)C3 [Example 172, [(3S)-3-(Dimethylamino)pyrrolidin-1-yl]{(7S)-4-[(6-ethoxy-1H-indazol-5-yl)amino]-5,6,7,8-tetrahydro[1]benzothieno[2,3-d]pyrimidin-7-yl}methanone] |
| 8.24 | C[C@@H]1COCCN1C(=O)[C@H]1CCc2c(sc3ncnc(Nc4cc5cn[nH]c5cc4Br)c23)C1 [Example 232, {(7S)-4-[(6-Bromo-1H-indazol-5-yl)amino]-5,6,7,8-tetrahydro[1]benzothieno[2,3-d]pyrimidin-7-yl}[(3R)-3-methylmorpholin-4-yl]methanone] |
| 7.35 | CN(C)C(=O)[C@H]1CCc2c(sc3ncnc(Nc4cc5cn[nH]c5cc4S(C)(=O)=O)c23)C1 [Example 186, (7S)—N,N-Dimethyl-4-{[6-(methylsulfonyl)-1H-indazol-5-yl]amino}-5,6,7,8-tetrahydro[1]benzothieno[2,3-d]pyrimidine-7-carboxamide] |
| 9.30 | COc1cc2[nH]ncc2cc1Nc1ncnc2sc3c(c12)CC[C@H](C(=O)N1CC2CC2C1)C3 (stereo partly drawn) [Example 209, 3-Azabicyclo[3.1.0]hex-3-yl{(7S)-4-[(6-methoxy-1H-indazol-5-yl)amino]-5,6,7,8-tetrahydro[1]benzothieno[2,3-d]pyrimidin-7-yl}methanone] |
| 9.52 | CN(C)C(=O)[C@H]1CCc2c(sc3ncnc(Nc4cc5cn[nH]c5cc4OCCNC(=O)CC4CCCCC4)c23)C1 [Example 274, (7S)-4-[(6-{2-[(Cyclohexylacetyl)amino]ethoxy}-1H-indazol-5-yl)amino]-N,N-dimethyl-5,6,7,8-tetrahydro[1]benzothieno[2,3-d]pyrimidine-7-carboxamide] |
| 7.99 | CN(C)C(=O)[C@H]1CCc2c(sc3ncnc(Nc4cc5cn[nH]c5cc4OCCCN4CC(F)C4)c23)C1 [Example 276, (7S)-4-({6-[3-(3-Fluoroazetidin-1-yl)propoxy]-1H-indazol-5-yl}amino)-N,N-dimethyl-5,6,7,8-tetrahydro[1]benzothieno[2,3-d]pyrimidine-7-carboxamide] |

Same assay, conditions: Table 2; ratio of the IC50-value of an R-enantiomer and its corresponding S-enantiomer

| Activity-Ratio MKNK1 | Compound |
| --- | --- |
| 26.1 | COc1cc2[nH]ncc2cc1Nc1ncnc2sc3c(c12)CC[C@H](C(=O)N1CCOCC1)C3 [Example 28, {(7S)-4-[(6-Methoxy-1H-indazol-5-yl)amino]-5,6,7,8-tetrahydro[1]benzothieno[2,3-d]pyrimidin-7-yl}(morpholin-4-yl)methanone] |
